Assay results: US20180346995A1, “Process for Exploiting Synthetic Lethality Based on OverExpression of MYC Oncogene” (priority 2017, published 2018)

Key:
ROCKII = ROCKII (Homo sapiens, UniProt O75116); settings: cited from earlier work
[1] = tested on: IMR-90 cells expressing MycER; assay: Cell death on acute activation of MYC (MycER + 4-OHT), IMR-90; assay type: cell-based, human; settings: IMR-90 MycER, 3 days; for cell death, agent alone: single agent
Method: (§1) Cell viability was determined by the trypan blue exclusion assay. Each column represents the average of 3 independent experiments, and each experiment was done in triplicate. Error bars represent one standard deviation. FIG. 1(B) illustrates the cytotoxicity of H-1152 for normal cells and a MYC-overexpressing human cancer cell line IM-9. H-1152 was applied to the indicated cells at 6 μM for 3 days. Cell viability, was determined by the trypan blue exclusion assay. A representative experiment is shown. […] Rat1A cells harboring either an empty vector or various indicated oncogenes were treated with either 0.1% DMSO or 6 μM H-1152 for 3 days. Cell viability was determined by the trypan blue exclusion assay. Each column represents the average of 3 independent experiments, and each experiment was done in triplicate. Error bars represent one standard deviation. […] Rat (Rat1A) or human (HA1E and IMR-90) cells expressing either MycER or MycNER were incubated with or without 6 μM H-1152 and/or 200 nM 4-OHT for 3 days. Cell viability was determined by the trypan blue exclusion assay. A representative experiment is shown.
(§2) In order to negate the possibility that sustained expression of MYC gene has given rise to unidentified targets affected by H-1152, sensitivity of H-1152 in acutely activated cells was measured. Acute activation of MYC was exploited by means of a MYC-estrogen receptor chimera. This receptor is rapidly activated by the addition of 4-hydroxy-tamoxifen (“4-OH”). […] FIG. 1D. A similar experiment was conducted with acute activation of the MYCN gene. MYCN shares high sequence similarity and crucial biochemical and genetic activities with MYC. […] Accordingly, H-1152 elicits MYC-dependent cell lethality irrespective of whether MYC is constitutively expressed or acutely activated. Furthermore, this sensitivity holds true for both fibroblasts cells and epithelial cells.

[2] = tested on: HA1E cells expressing MycER; assay: Cell death on acute activation of MYC (MycER + 4-OHT), HA1E; assay type: cell-based, human; settings: 3 days; for cell death, agent alone: single agent
Method: as §1, §2

[3] = tested on: Myc^low human cancer cell lines; assay: Cytotoxicity in Myc^low human cancer cell lines (trypan blue); assay type: cell-based; settings: Myc^low group, 6 μM, 4 days
Method: (§3) FIG. 5. illustrates that MYC abundance is a univariate predicator of the response of human tumor cell lines to H-1152 by showing the cytotoxicity of H-1152 for 75 human cancer cell lines. Cell lines in the Myc^high group and the Myc^low group were treated for four days with either 0.1% DMSO or 6 μM H-1152. Cell viability was then determined by the trypan blue exclusion assay. FIG. 5(A) is a histogram representing the average of two independent experiments. […] Results are presented as the percentage of dead cells in the presence of H-1152 minus that in the presence of DMSO. Red, yellow and green dots represent cell lines with abundant Myc, MycN and L-Myc respectively. Comparison of the two data sets with two-sided Mann-Whitney test indicates p<0.0001.
(§4) The Myc^high group also includes 8 cell lines with abundant MycN expression and 3 cell lines abundantly expressing L-Myc. […] (FIG. 5 A, B). The difference between the two data sets was statistically significant.

RPE-MYC cells [4] = assay: Apoptosis assays (immunofluorescence, Mitotracker) in RPE-MYC cells; assay type: cell-based, human; settings: 6 μM
Method: RPE-MYC cells were exposed to 6 μM H-1152 for 48 hours and then incubated for 30 minutes with 40 nM MITOTRACKER Red (Molecular Probes) and fixed. Fixed cells were stained for DNA with DAPI (in blue) and then analyzed with a confocal laser microscope. Arrowheads indicate apoptotic nuclei. Scale bar, 10 μm. See Appendix A—for Immunofluorescence Microscopy method. […] RPE-MYC and RPE-NEO cells were treated with 0.1% DMSO or 6 μM H-1152 for 3 days and then subjected to the indicated assays. Each column represents the average of 3 independent experiments, and each experiment was done in triplicate. Error bars represent one standard deviation.
FIG. 2B. […] FIB 2A. […]
Cells are cultured on coverslips in a 6-well plate, fixed with 4% paraformaldehyde or 4% paraformaldehyde followed with methanol treatment, and then permeabilized with 0.3% Triton X-100. […] Primary antibodies are detected with Texas red-conjugated or fluorescein isothiocyanate-conjugated secondary antibodies that may be purchased from Jackson ImmunoResearch. […]
For determination of mitochondrial membrane potential, cells are cultured on cover slips and exposed for 30 min at 37° C. with 40 nM Mitotracker# Red CMXRos (Molecular Probes), a dye that accumulates in mitochondria as a function of the mitochondrial potential. […] For fluorescence detection, an EVOS FL auto microscope (THERMO FISHER) can be used.

[5] = tested on: Myc^high human cancer cell lines; assay: Cytotoxicity in Myc^high human cancer cell lines (trypan blue); assay type: cell-based; settings: 6 μM, 4 days
Method: as §3, §4

[6] = tested on: NCI-H211 xenograft tumors; assay: Xenograft tumor growth in athymic mice, NCI-H211; assay type: in vivo; settings: Myc^low NCI-H211, 60 mg/kg oral gavage twice a day
Description: (§5) FIG. 7. illustrates how H-1152 elicits therapeutic efficacy against tumorigenesis of cancer cells that overexpress MYC. […] Extracts from four human cancer cell lines (1. NCI-H524, 2. NCI-H841, 3. NCI-H211, 4. NCI-H2199) were blotted for MYC and tubulin by Western blotting. […] See Appendix D for Method of Mouse In Vivo Assay. Two Myc^high cell lines and two Myc^low cell lines were implanted subcutaneously into athymic mice (One to ten millions of cells per injection). When tumors reached approximately 50-70 mm^3, tumor-bearing mice were randomized to receive oral gavage with either vehicle of H-1152 (60 mg/kg body weight per injection) twice a day until the endpoint. The tumor volume was determined at the indicated time points.
(§6) To determine whether tissue culture results can be replicated in vivo, two cell lines from Myc^High group, namely NCI-H841 and NCI-H524, and two cell lines from Myc^low group, namely NCI-H211 and NCI-H2199. […]
(§7) Experimental mice are housed and treated according to the protocol approved by the Institutional Animal Care and Use Committee of MBICR. […] Tumor diameter at injection sites are monitored at the indicated time points with a digital caliper and the volume calculated using the formula: V (mm3)=A×B×B/2, where A and B represent the largest and smallest diameters of the tumor respectively.

[7] = tested on: NCI-H524 xenograft tumors; assay: Xenograft tumor growth in athymic mice, NCI-H524; assay type: in vivo; settings: Myc^high NCI-H524, 60 mg/kg oral gavage twice a day
Description: as §5, §6, §7

[8] = tested on: cells expressing MYCN-estrogen receptor chimera; assay: Cell death on acute activation of MYCN (MycNER + 4-OHT); assay type: cell-based; settings: MYCN-ER activated with 4-OHT, H-1152 application
Method: as §1
In order to negate the possibility that sustained expression of MYC gene has given rise to unidentified targets affected by H-1152, sensitivity of H-1152 in acutely activated cells was measured. Acute activation of MYC was exploited by means of a MYC-estrogen receptor chimera. […]

IM-9 cells = assay: Trypan blue exclusion cell viability assay in IM-9 cells; assay type: cell-based, human; settings: IM-9, 6 μM, 3 days
Method: as §1
(§8) The result after 3-days treatment were similar. […] The one observed exception is the IM-9 cells that overexpress MYC. Cell lethality in the IM-9 cell line was approximately 30% after H-1152 treatment for 3 days. FIG. 1B.

[9] = tested on: normal cells and immortalized cells; assay: Trypan blue exclusion cell viability assay in normal and immortalized cells; assay type: cell-based; settings: 6 μM, 3 days
Method: as §1, §8

RPE-MYC cells [10] = assay: Trypan blue exclusion cell viability assay in RPE-MYC cells; assay type: cell-based, human; settings: 72 hours
Method: as §1
FIG. 3(B) illustrates how H-1152, but not other inhibitors of ROCK kinases, preferentially kills RPE-MYC cells. […] Cell viability was determined by the trypan blue exclusion assay. […]

[11] = tested on: NCI-H2199 xenograft tumors; assay: Xenograft tumor growth in athymic mice, NCI-H2199; assay type: in vivo; settings: Myc^low NCI-H2199, 60 mg/kg oral gavage twice a day
Description: as §5, §6, §7

RPE-NEO cells = assay: Trypan blue exclusion cell viability assay in RPE-NEO cells; assay type: cell-based, human; settings: 6 μM H-1152, 3 days
Method: as §1
In order to confirm that H-1152 elicits cytotoxicity in cells overexpressing MYC, human retinal pigment epithelial cells were stably transfected with either MYC or a Neomycin selection marker gene (“NEO”) in combination with hTERT. […]

[12] = tested on: Rat1A cells expressing MYC or other oncogenes; assay: Trypan blue exclusion cell viability assay in Rat1A cells harboring various oncogenes; assay type: cell-based, rat; settings: 6 μM, 3 days
Method: as §1
To determine whether cytotoxicity by H-1152 is dependent on MYC-expression or any oncogene, rat 1A cells expressing MYC as well as other active cellular oncogenes were evaluated for lethality. […] FIG. 1C.

[13] = tested on: NCI-H841 xenograft tumors; assay: Xenograft tumor growth in athymic mice, NCI-H841; assay type: in vivo; settings: Myc^high NCI-H841, 60 mg/kg oral gavage twice a day
Description: as §5, §6, §7

[14] = 6 μM H-1152 together with 200 nM 4-OHT

Sequence of ROCKII (O75116 whole entry, species assumed): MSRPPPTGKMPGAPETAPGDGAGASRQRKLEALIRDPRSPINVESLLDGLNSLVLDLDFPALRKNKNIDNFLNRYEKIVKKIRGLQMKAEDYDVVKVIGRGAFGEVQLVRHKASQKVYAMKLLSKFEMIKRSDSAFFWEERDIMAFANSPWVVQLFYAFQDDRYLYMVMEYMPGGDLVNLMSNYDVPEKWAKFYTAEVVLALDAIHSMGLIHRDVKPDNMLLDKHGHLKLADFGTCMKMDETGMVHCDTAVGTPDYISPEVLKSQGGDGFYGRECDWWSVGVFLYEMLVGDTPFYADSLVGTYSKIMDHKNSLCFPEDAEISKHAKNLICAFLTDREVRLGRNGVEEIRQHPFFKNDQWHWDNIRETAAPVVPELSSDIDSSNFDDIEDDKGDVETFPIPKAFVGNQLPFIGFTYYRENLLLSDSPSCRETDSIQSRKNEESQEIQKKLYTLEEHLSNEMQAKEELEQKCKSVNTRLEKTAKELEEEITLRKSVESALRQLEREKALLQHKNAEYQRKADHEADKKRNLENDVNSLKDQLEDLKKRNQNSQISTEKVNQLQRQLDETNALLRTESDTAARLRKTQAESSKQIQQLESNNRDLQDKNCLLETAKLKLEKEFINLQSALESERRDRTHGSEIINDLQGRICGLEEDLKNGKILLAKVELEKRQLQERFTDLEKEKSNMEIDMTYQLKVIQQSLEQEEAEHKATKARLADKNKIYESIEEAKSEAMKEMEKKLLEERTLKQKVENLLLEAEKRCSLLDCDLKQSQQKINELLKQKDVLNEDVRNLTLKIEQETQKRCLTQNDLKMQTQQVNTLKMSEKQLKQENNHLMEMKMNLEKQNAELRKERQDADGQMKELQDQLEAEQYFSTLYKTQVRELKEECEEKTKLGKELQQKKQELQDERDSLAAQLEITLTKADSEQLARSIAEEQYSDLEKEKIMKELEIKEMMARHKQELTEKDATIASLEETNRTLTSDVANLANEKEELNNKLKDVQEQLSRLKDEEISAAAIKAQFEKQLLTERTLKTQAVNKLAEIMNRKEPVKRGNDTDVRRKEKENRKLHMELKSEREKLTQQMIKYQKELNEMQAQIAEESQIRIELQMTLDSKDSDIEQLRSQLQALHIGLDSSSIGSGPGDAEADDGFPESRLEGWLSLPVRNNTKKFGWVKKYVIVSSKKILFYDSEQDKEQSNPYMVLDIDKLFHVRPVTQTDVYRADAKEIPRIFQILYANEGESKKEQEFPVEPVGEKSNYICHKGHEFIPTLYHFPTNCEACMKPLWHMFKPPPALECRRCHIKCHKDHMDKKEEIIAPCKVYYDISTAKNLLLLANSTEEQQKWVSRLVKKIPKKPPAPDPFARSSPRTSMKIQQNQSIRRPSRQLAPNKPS

C[C@H]1CNCCCN1S(=O)(=O)c1cccc2cncc(F)c12 [Rapasudil]
IC50 (ROCKII): 19 nM

4-hydroxy-tamoxifen [4-OH]
cell death, agent alone [1]: low levels of cell death | cell death, agent alone [2]: low levels of cell death

Cc1cncc2cccc(S(=O)(=O)N3CCCNC[C@@H]3C)c12 [H-1152, dimethylfasudil]
cell lines sensitive to H-1152 [3]: 3 of 24 | mitochondria-dependent apoptosis pathway events (membrane potential, cytochrome C release, caspase 9) (RPE-MYC cells [4]; 48 hours): cell death via activation of the mitochondria-dependent apoptosis pathway | apoptotic features (nuclear condensation, caspase 3 activation, PARP cleavage) (RPE-MYC cells [4]; 3 days): Symptoms of classical apoptosis were recorded | cell death across cell lines, Myc^high versus Myc^low [5]: massive cell death in a much higher percentage of cell lines in the Myc^high group | cell lines that failed to undergo apoptosis ([5]; Myc^high group): 11 of the 51 | cell lethality [1, 14]: over 30% | cell death, agent alone [1]: low levels of cell death | tumor development [6]: failed to impact tumor development | tumor development [7]: stabilized tumor development | cell lethality [2, 14]: over 30% | cell death, agent alone [2]: low levels of cell death | cell lethality [8]: high cell lethality | cell lethality (IM-9 cells): approximately 30% | cell toxicity [9]: negligible effect on cell toxicity | cell lethality (RPE-MYC cells [10]; 6 μM H-1152 + 100 μM z-VAD-fmk): 15% | cell death in comparison of ROCK inhibitors (RPE-MYC cells [10]): significant cell death | tumor development [11]: failed to impact tumor development | cells killed (RPE-NEO cells): none | cell death among cells with various active oncogenes [12]: only MYC expressing cells demonstrated cell death | tumor development [13]: slowed down tumor development
